Measured values from patent publication US20150283287A1, “METHODS AND COMPOSITIONS FOR WOUND HEALING” (IMBED BIOSCIENCES, INC., priority 2012, published 2015).

What was measured:
[1] = tested on: P. aeruginosa (ATCC 27853) biofilms; assay: Inhibition of biofilm formation (crystal violet staining); assay type: cell-based, Pseudomonas aeruginosa
Protocol: During the development of embodiments of the technology provided herein, experiments were conducted to determine the minimum concentration of Ga (e.g., as Ga(NO3)3) to inhibit biofilm formation. In particular, Ga was added to cultures of Pseudomonas aeruginosa in biofilm growth media (500 μL of 1% tryptic soy broth (TSB)) to test the inhibition of biofilm formation at the bottom of 48-well tissue culture plates.
Biofilm growth arising from suspensions of 10^6 CFU/ml P. aeruginosa (ATCC 27853) was quantified after 24, 48, and 72 hours by staining biofilms with crystal violet, following methods described previously (Brandenburg et al. Tryptophan Inhibits Biofilm Formation by Pseudomonas aeruginosa. Antimicrobial Agents and Chemotherapy. 2013; 57:1921-5).

established biofilms = conditions: in TSB; cited from earlier work
mammalian cells = conditions: cited from earlier work
incisional wounds = conditions: in vivo; cited from earlier work

Compound | Effect on free (planktonic) bacterial counts ([1]; 25 μM) | Concentration in solution sufficient to completely inhibit biofilm formation ([1]; 72 hours, 10^6 CFU/ml in 1% TSB) [µM] | Concentration that disperses established biofilms (established biofilms) [µM] | Concentrations not cytotoxic to mammalian cells (mammalian cells) | Fibroblastic proliferation (incisional wounds) | Production of collagen (incisional wounds)
O=[N+]([O-])[O-].O=[N+]([O-])[O-].O=[N+]([O-])[O-].[Ga+3] [Ga^3+, Ga(NO3)3] | not bactericidal | 25 | 100 | up to 1 mM | – | –
CC1=C(/C=C/C(C)=C/C=C/C(C)=C/C(=O)O)C(C)(C)CCC1 [tretinoin] | – | – | – | – | increased | diminished
